Results on 16 compounds are retold here after US20260159618A1, “COMPOUND, POLYMERIZABLE COMPOSITION, POLYMER, HOLOGRAPHIC RECORDING MEDIUM, OPTICAL MATERIAL, AND OPTICAL COMPONENT” (Mitsubishi Chemical Corporation, priority 2022, published 2026).

Structures are written as SMILES. Like-named read-outs stand apart in the source and are kept apart here.

For data set [1] the following is noted: prior-art compounds, background art; cited from earlier work.
Data set [2] in a line: Refractive index measurement of polymerizable monomer (Kalnew precision refractometer). The format is physicochemical. Set-up: key to Refractive Index (dash symbol): ⊚: 0.019 or more; ◯: 0.015 or more and less than 0.019; Δ: 0.010 or more and less than 0.015; x: less than 0.010; —: impossible to measure. To be noted: for Refractive Index: 23° C., helium lamp d-line (587.6 nm), calculated for 100% by mass from calibration curve of 10 and 20% by mass test solutions; for Refractive Index (dash symbol): sample not suitable for refractive index measurement. How it is done:
The refractive index of the compound M-1 was measured using the following method. The refractive indexes of the polymerizable monomers produced in the Examples and Comparative Examples were also measured using the same method.
A test solution was prepared by dissolving the sample in a mixed solution of 3-phenoxybenzyl acrylate and trimethylolpropane trimethacrylate in a mass ratio of 4:1 to obtain the specified concentration.
Two types of test solutions were prepared, with sample concentrations of 10% by mass and 20% by mass.
The refractive index of each test solution was measured using a Kalnew precision refractometer (manufactured by Shimadzu Corporation, product name: KPR-2000). The temperature of the test solution was 23° C., and the measurement wavelength was helium lamp d-line (587.6 nm). Based on the measurement results, a calibration curve showing the correlation between sample concentration and refractive index was created, and the refractive index when the sample concentration was 100% by mass was calculated from the obtained calibration curve, and was taken as the refractive index of the sample.

A short description of data set [3]: Solubility in Duranate TSS-100, visual observation. The format is physicochemical. The settings on record: 0.63 g monomer dissolved in 2.53 g Duranate TSS-100, visually observed. How it is done: (§1) When 0.63 g of polymerizable monomers M-1 to M-11 and R-1 to R-4 were dissolved in 2.53 g of Duranate (registered trademark) TSS-100, the state of the solution was visually observed and the solubility was evaluated as ∘ (completely dissolved), Δ (cloudy), or x (solid remaining in solution). In addition, the state of each solution was visually observed when it was stored at room temperature for 10 days and the storage stability was evaluated as ∘ (completely dissolved), Δ (cloudy), or x (solid remaining in solution).

A short description of data set [4]: Storage stability of the TSS-100 solution, visual observation. The format is physicochemical. Set-up: key: ∘: completely dissolved; Δ: cloudy; x: solid remaining in solution. The settings on record: solution in Duranate TSS-100 stored at room temperature for 10 days, visually observed. The protocol: as §1

As for `C=CC(=O)OCCOc1ccc(C2(c3ccc(OCCOC(=O)C=C)cc3)c3ccccc3-c3ccccc32)cc1` [9,9-bis[4-(2-acryloyloxyethoxy)phenyl]fluorene], in data set [1], the Refractive Index result is “about 1.62”.
As to `C=C(C)C(=O)OCCNC(=O)Oc1c(-c2cccc3c2sc2ccccc23)cc(-c2cccc3c2sc2ccccc23)cc1-c1cccc2c1sc1ccccc12` [Compound M-1], the “Refractive Index” value in data set [2] is given as 1.6818. Moreover, the Solubility result in data set [3] is given as “◯”. The “Storage Stability” value in data set [4] is on record as “◯”.
As for `C=C(C)C(=O)OCCNC(=O)Oc1c(-c2cc3ccccc3c3ccccc23)cc(-c2cc3ccccc3c3ccccc23)cc1-c1cc2ccccc2c2ccccc12` [Compound M-2], in data set [2], the “Refractive Index” value is 1.6898. Besides, the Solubility result in data set [3] is recorded as “◯”. Besides, in data set [4], the “Storage Stability” value is listed as “◯”.
As to `C=CC(=O)OCCNC(=O)Oc1c(-c2cccc3c2sc2ccccc23)cc(-c2cccc3c2sc2ccccc23)cc1-c1cccc2c1sc1ccccc12` [Compound M-3], the “Refractive Index” value in data set [2] is listed as 1.6891. The Solubility result in data set [3] is on record as “◯”. The “Storage Stability” value in data set [4] is given as “◯”.
Regarding `C=CC(=O)OCCNC(=O)Oc1c(-c2cc3ccccc3c3ccccc23)cc(-c2cc3ccccc3c3ccccc23)cc1-c1cc2ccccc2c2ccccc12` [Compound M-4], the “Refractive Index” value in data set [2] is 1.6894. In addition, the Solubility result in data set [3] is on record as “◯”. Besides, in data set [4], the “Storage Stability” value is listed as “◯”.
`C=C(C)C(=O)OCCNC(=O)Oc1c(-c2ccc3ccccc3c2)cc(-c2ccc3ccccc3c2)cc1-c1ccc2ccccc2c1` [Compound M-5]: in data set [2], the “Refractive Index” value was 1.6798. For the same compound, in data set [3], the Solubility result is reported as “◯”. Further, the “Storage Stability” value in data set [4] was “◯”.
Regarding `C=C(C)C(=O)OCCOCCNC(=O)Oc1c(-c2cc3ccccc3c3ccccc23)cc(-c2cc3ccccc3c3ccccc23)cc1-c1cc2ccccc2c2ccccc12` [Compound M-6], the “Refractive Index” value in data set [2] is on record as 1.7013. Besides, the Solubility result in data set [3] is recorded as “◯”. The “Storage Stability” value in data set [4] was “◯”.
As to `C=CC(=O)OCCNC(=O)OCCOc1c(-c2cc3ccccc3c3ccccc23)cc(-c2cc3ccccc3c3ccccc23)cc1-c1cc2ccccc2c2ccccc12` [Compound M-7], in data set [2], the “Refractive Index” value is listed as 1.7104. The Solubility result in data set [3] is on record as “◯”. For the same compound, the “Storage Stability” value in data set [4] is “◯”.
Consider `C=C(C)C(=O)OCCNC(=O)OCCOc1c(-c2cc3ccccc3c3ccccc23)cc(-c2cc3ccccc3c3ccccc23)cc1-c1cc2ccccc2c2ccccc12` [Compound M-8], for which the “Refractive Index” value in data set [2] is given as 1.7042. Further, the Solubility entry in data set [3] is “◯”. Also, in data set [4], the “Storage Stability” value is “◯”.
On to `C=C(C)C(=O)OCCOCCNC(=O)OCCOc1c(-c2cc3ccccc3c3ccccc23)cc(-c2cc3ccccc3c3ccccc23)cc1-c1cc2ccccc2c2ccccc12` [Compound M-9], for which the “Refractive Index” value in data set [2] is 1.6975. In addition, the Solubility result in data set [3] is “◯”. The “Storage Stability” value in data set [4] is listed as “◯”.
`C=CC(=O)OCCOc1c(-c2cc3ccccc3c3ccccc23)cc(-c2cc3ccccc3c3ccccc23)cc1-c1cc2ccccc2c2ccccc12` [Compound M-10]: the “Refractive Index” value in data set [2] is on record as 1.7323. Further, in data set [3], the Solubility result was “◯”. Further, the “Storage Stability” value in data set [4] is on record as “◯”.
Take `C=CC(=O)OCCCOc1c(-c2cc3ccccc3c3ccccc23)cc(-c2cc3ccccc3c3ccccc23)cc1-c1cc2ccccc2c2ccccc12` [Compound M-11]: in data set [2], the “Refractive Index” value is 1.7316. The Solubility entry in data set [3] was “◯”. Also, the “Storage Stability” value in data set [4] is “◯”.
As to `C=CC(=O)OCCNC(=O)Oc1ccc(-c2cccc3c2sc2ccccc23)cc1-c1cccc2c1sc1ccccc12` [Compound R-1, reference compound], the “Refractive Index” value in data set [2] is reported as 1.6762. Further, the “Storage Stability” value in data set [4] is “Δ”.
Turning to `C=CC(=O)Oc1c(-c2cccc3c2sc2ccccc23)cc(-c2cccc3c2sc2ccccc23)cc1-c1cccc2c1sc1ccccc12` [Compound R-2, reference compound], the “Refractive Index” value in data set [2] was 1.7056. Also, the “Storage Stability” value in data set [4] is listed as “Δ”.
Turning to `C=CC(=O)OCCOc1c(-c2cccc3c2sc2ccccc23)cc(-c2cccc3c2sc2ccccc23)cc1-c1cccc2c1sc1ccccc12` [Compound R-3, reference compound], the “Refractive Index (dash symbol)” value in data set [2] was “—”.
On the same count and under the same terms, for `C=CC(=O)OCCCCOc1c(-c2cccc3c2sc2ccccc23)cc(-c2cccc3c2sc2ccccc23)cc1-c1cccc2c1sc1ccccc12` [Compound R-4, reference compound] the value was “—”.
